ChEMBL document CHEMBL3885861, “Open TG-GATES”

Species: Rattus norvegicus
Test: Open TG-GATES - Regimen: Single
Type: toxicity, organism-based, Sprague-Dawley
Parameters: regimen Single, gender Male, age 6 weeks
Conditions: in vivo, po, 1000 mg/kg, route gavage, dose level High; for APTT / Bas / Eos / Fbg / Hb / Ht / Lym / MCH / MCHC / MCV / Mono / Neu / PT / Plat / RBC / Ret / WBC: tissue Blood; for KIDNEY_L / KIDNEY_R / KIDNEY_TOTAL: tissue Kidney; for LIVER: tissue Liver; for A/G / ALP / ALT / AST / BUN / CRE / Ca / Cl / DBIL / GLC / IP / K / LDH / Na / PL / RALB / TBIL / TC / TG / TP / gamma-GTP: tissue Plasma

## C[C@H]1O[C@H](O[C@H]2[C@H](O)[C@@H](O)[C@@H](O[C@H]3[C@H](O)[C@@H](O)C(O)O[C@@H]3CO)O[C@@H]2CO)[C@H](O)[C@@H](O)[C@@H]1N[C@H]1C=C(CO)[C@@H](O)[C@H](O)[C@H]1O (some centres not stated) [ACARBOSE]
3 h
  TERMINAL_BW: 197.2 g
  APTT: 17.5 s
  Bas: 0%
  Eos: 1%
  Fbg: 289.2 mg/dL
  Hb: 13.7 g/dL
  Ht: 42%
  Lym: 82.4%
  MCH: 20.7 pg
  MCHC: 32.7%
  MCV: 63.3 fL
  Mono: 2.2%
  Neu: 13.8%
  PT: 13.2 s
  Plat: 116 x10_4/uL
  RBC: 664 x10_4/ul
  Ret: 8%
  WBC: 88.8 x10_2/uL
  KIDNEY_L: 0.9 g
  KIDNEY_R: 0.9 g
  KIDNEY_TOTAL: 1.7 g
  LIVER: 8.2 g
  A/G: 0.9
  ALP: 1484.6 IU/L
  ALT: 38 IU/L
  AST: 73.6 IU/L
  BUN: 10.6 mg/dL
  CRE: 0.2 mg/dL
  Ca: 11 mg/dL
  Cl: 104.4 meq/L
  DBIL: 0.004 mg/dL
  GLC: 166.2 mg/dL
  IP: 10 mg/dL
  K: 4 meq/L
  LDH: 62.6 IU/L
  Na: 141.4 meq/L
  PL: 131.4 mg/dL
  RALB: 2.5 g/dL
  TBIL: 0.054 mg/dL
  TC: 71.4 mg/dL
  TG: 45.2 mg/dL
  TP: 5.2 g/dL
  gamma-GTP: 1 IU/L
6 h
  TERMINAL_BW: 198.5 g
  APTT: 17.1 s
  Bas: 0%
  Eos: 1%
  Fbg: 266.4 mg/dL
  Hb: 13.3 g/dL
  Ht: 41.1%
  Lym: 74.8%
  MCH: 20.9 pg
  MCHC: 32.5%
  MCV: 64.2 fL
  Mono: 3%
  Neu: 20.2%
  PT: 13.5 s
  Plat: 118.8 x10_4/uL
  RBC: 640.4 x10_4/ul
  Ret: 8.2%
  WBC: 81.7 x10_2/uL
  KIDNEY_L: 0.9 g
  KIDNEY_R: 0.9 g
  KIDNEY_TOTAL: 1.8 g
  LIVER: 7.8 g
  A/G: 0.9
  ALP: 1359.2 IU/L
  ALT: 34.4 IU/L
  AST: 73.8 IU/L
  BUN: 9.4 mg/dL
  CRE: 0.2 mg/dL
  Ca: 10.6 mg/dL
  Cl: 104 meq/L
  DBIL: 0.004 mg/dL
  GLC: 167.2 mg/dL
  IP: 10 mg/dL
  K: 4 meq/L
  LDH: 61.6 IU/L
  Na: 140.4 meq/L
  PL: 128.8 mg/dL
  RALB: 2.4 g/dL
  TBIL: 0.066 mg/dL
  TC: 72.2 mg/dL
  TG: 35.4 mg/dL
  TP: 5 g/dL
  gamma-GTP: 1 IU/L
9 h
  TERMINAL_BW: 195.6 g
  APTT: 17 s
  Bas: 0.4%
  Eos: 0.8%
  Fbg: 306 mg/dL
  Hb: 13.6 g/dL
  Ht: 41.9%
  Lym: 78.2%
  MCH: 20.8 pg
  MCHC: 32.3%
  MCV: 64.2 fL
  Mono: 2.2%
  Neu: 18%
  PT: 13.4 s
  Plat: 117.8 x10_4/uL
  RBC: 654.4 x10_4/ul
  Ret: 7.9%
  WBC: 87.1 x10_2/uL
  KIDNEY_L: 0.9 g
  KIDNEY_R: 0.9 g
  KIDNEY_TOTAL: 1.8 g
  LIVER: 7.4 g
  A/G: 0.9
  ALP: 1457.4 IU/L
  ALT: 36 IU/L
  AST: 75.8 IU/L
  BUN: 8.8 mg/dL
  CRE: 0.2 mg/dL
  Ca: 10.6 mg/dL
  Cl: 105.2 meq/L
  DBIL: 0.002 mg/dL
  GLC: 168.8 mg/dL
  IP: 10.1 mg/dL
  K: 3.8 meq/L
  LDH: 67.2 IU/L
  Na: 142 meq/L
  PL: 119 mg/dL
  RALB: 2.5 g/dL
  TBIL: 0.064 mg/dL
  TC: 70.8 mg/dL
  TG: 24 mg/dL
  TP: 5.3 g/dL
  gamma-GTP: 1.2 IU/L
24 h
  TERMINAL_BW: 212.7 g
  APTT: 18.7 s
  Bas: 0%
  Eos: 1.2%
  Fbg: 291.4 mg/dL
  Hb: 13.4 g/dL
  Ht: 40.9%
  Lym: 72.2%
  MCH: 20.9 pg
  MCHC: 32.6%
  MCV: 64.1 fL
  Mono: 2.8%
  Neu: 23%
  PT: 13 s
  Plat: 118.2 x10_4/uL
  RBC: 638.4 x10_4/ul
  Ret: 7.9%
  WBC: 103.5 x10_2/uL
  KIDNEY_L: 0.9 g
  KIDNEY_R: 0.9 g
  KIDNEY_TOTAL: 1.8 g
  LIVER: 9.8 g
  A/G: 0.9
  ALP: 1691 IU/L
  ALT: 44.4 IU/L
  AST: 75.4 IU/L
  BUN: 14.6 mg/dL
  CRE: 0.2 mg/dL
  Ca: 10.7 mg/dL
  Cl: 105.6 meq/L
  DBIL: 0.01 mg/dL
  GLC: 173.4 mg/dL
  IP: 7.9 mg/dL
  K: 4 meq/L
  LDH: 66.2 IU/L
  Na: 142.8 meq/L
  PL: 132.6 mg/dL
  RALB: 2.6 g/dL
  TBIL: 0.06 mg/dL
  TC: 72.2 mg/dL
  TG: 70.8 mg/dL
  TP: 5.5 g/dL
  gamma-GTP: 1 IU/L
